# Target: T1, Recombinant human LTC4 synthase (Homo sapiens, UniProt Q16873)
# T1 construct: made in house; host or cells: Pichia pastoris
# T1 sequence (Q16873 1-150): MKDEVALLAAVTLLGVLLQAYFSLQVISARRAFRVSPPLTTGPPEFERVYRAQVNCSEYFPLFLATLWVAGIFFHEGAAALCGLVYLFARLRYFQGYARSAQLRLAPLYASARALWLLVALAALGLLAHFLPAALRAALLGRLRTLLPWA
# Test: In vitro LTC4 synthase assay (LTA4 to LTC4, HTRF detection)
# Format: biochemical
# Conditions: 5 min; total concentration of title compounds in the assay 10 μM
# Procedure: In the assay, LTC4 synthase catalyses the reaction where the substrate LTA4 is converted to LTC4. Recombinant human LTC4 synthase is expressed in Piccia pastoralis and the purified enzyme is dissolved in 25 mM tris-buffer pH 7.8 supplemented with 0.1 mM glutathione (GSH) and stored at −80° C. The assay is performed in phosphate buffered saline (PBS) pH 7.4 and 5 mM GSH in 384-well plates.
# The following is added chronologically to each well:
# 1. 48 μL LTC4 synthase in PBS with 5 mM GSH. The total protein concentration in this solution is 0.5 μg/mL. 2. 1 μL inhibitor in DMSO (final concentration 10 μM). 3. Incubation of the plate at room temperature for 10 min. 4. 1 μL LTA4 (final concentration 2.5 μM). 5. Incubation of the plate at room temperature for 5 min. 6. 10 μL of the incubation mixture is analysed using homogenous time resolved fluorescent (HTRF) detection.
row,Structure (SMILES),inhibition at 10 µM
1,"CCCCCC[S+]([O-])c1ccc(C(=O)c2ncc(N(C)c3ccc(Cl)cc3)cn2)cc1C(=O)O (centres unmarked) [Example 1:21, 5-(5-((4-Chlorophenyl)(methyl)amino)pyrimidine-2-carbonyl)-2-(1-hexylsulfinyl)-benzoic acid]",99%
2,"CN(c1ccc(Cl)cc1)c1ccc(C(=O)c2ccc([S+]([O-])c3ccc(Cl)cc3)c(C(=O)O)c2)cc1 (centres unmarked) [Example 1:2, 5-{4-[(4-Chlorophenyl)(methyl)amino]benzoyl}-2-(4-chlorophenylsulfinyl)benzoic acid]",100%

# Same assay, conditions: title compounds of the Examples
row,Structure (SMILES),IC50
1,"CN(c1ccc(Cl)cc1)c1ccc(C(=O)c2cc(C(=O)O)cc([S+]([O-])c3ccc(F)c(F)c3)c2)cc1 (centres unmarked) [Example 1:19, 3-{4-[(4-Chlorophenyl)(methyl)amino]benzoyl}-5-(3,4-difluorophenylsulfinyl)-benzoic acid]",212 nM
2,"CN(c1ccc(Cl)cc1)c1ccc(C(=O)c2ccc([S+]([O-])C34CC5CC(CC(C5)C3)C4)c(C(=O)O)c2)cc1 (centres unmarked) [1:6, 2-(1-Adamantylsulfinyl)-5-{4-[(4-chlorophenyl)methylamino]benzoyl}benzoic acid]",96 nM
3,"CN(c1ccc(Cl)cc1)c1ccc(C(=O)c2ccc([S+]([O-])C3CCCC3)c(C(=O)O)c2)cc1 (centres unmarked) [1:4, 5-{4-[(4-Chlorophenyl)(methyl)amino]benzoyl}-2-(cyclopentylsulfinyl)benzoic acid]",161 nM
4,CCCCCCSc1ccc(C(=O)c2ccc(N(C)c3ccc(Cl)cc3)cn2)cc1C(=O)O [2:5],129 nM
5,"O=C(c1ccc([S+]([O-])c2cccc(Cl)c2)c(C(=O)O)c1)c1ccc(N(CC2CC2)c2ccc(Cl)cc2)cn1 (centres unmarked) [1:18, 2-(3-Chlorophenylsulfinyl)-5-{5-[(4-chlorophenyl)cyclopropylmethylamino]-pyridine-2-carbonyl}benzoic acid]",31 nM
6,"CN(c1ccc(Cl)cc1)c1ccc(C(=O)c2cc(Sc3ccccc3)cc(C(=O)O)c2)nc1 [2:24, 3-{5-[(4-Chlorophenyl)methylamino]pyridine-2-carbonyl}-5-phenylsulfanyl-benzoic acid]",135 nM
7,"CCCCCC[S+]([O-])c1ccc(C(=O)c2ncc(N(C)c3ccc(Cl)cc3)cn2)cc1C(=O)O (centres unmarked) [Example 1:21, 5-(5-((4-Chlorophenyl)(methyl)amino)pyrimidine-2-carbonyl)-2-(1-hexylsulfinyl)-benzoic acid]",54 nM
8,"CN(c1ccc(Cl)cc1)c1ccc(C(=O)c2cc(Sc3ccc(F)c(F)c3)cc(C(=O)O)c2)cc1 [2:29, 3-(4-((4-Chlorophenyl)(methyl)amino)benzoyl)-5-(3,4-difluorophenylsulfanyl)benzoic acid]",88 nM
9,"O=C(c1ccc(N(CC2CC2)c2ccc(Cl)cc2)cc1)c1ccc(Sc2ccccc2)c(C(=O)O)c1 [2:8, 5-{4-[(4-Chlorophenyl)cyclopropylmethylamino]benzoyl}-2-phenylsulfanyl-benzoic acid]",74 nM
10,"CN(c1ccc(Cl)cc1)c1ccc(C(=O)c2ccc([S+]([O-])c3ccc(Cl)cc3)c(C(=O)O)c2)cc1 (centres unmarked) [Example 1:2, 5-{4-[(4-Chlorophenyl)(methyl)amino]benzoyl}-2-(4-chlorophenylsulfinyl)benzoic acid]",66 nM
11,"O=C(c1ccc(Sc2ccc(F)c(F)c2)c(C(=O)O)c1)c1ccc(OCc2cccc(Cl)c2)cn1 [Example 2:21, 5-[5-(3-Chlorobenzyloxy)pyridine-2-carbonyl]-2-(3,4-difluorophenyl-sulfanyl)benzoic acid]",119 nM
12,"O=C(c1ccc(Sc2cccc(Cl)c2)c(C(=O)O)c1)c1ccc(N(CC2CC2)c2ccc(Cl)cc2)cn1 [2:18, 5-{5-[(4-Chlorophenyl)cyclopropylmethylamino]pyridine-2-carbonyl}-2-(3-chlorophenylsulfanyl)benzoic acid]",46 nM
13,"O=C(c1ccc(Sc2cccc(C(F)(F)F)c2)c(C(=O)O)c1)c1ccc(N(CC2CC2)c2ccc(Cl)cc2)cn1 [2:12, 5-{5-[(4-Chlorophenyl)cyclopropylmethylamino]pyridine-2-carbonyl}-2-(3-trifluoromethylphenylsulfanyl)benzoic acid]",76 nM
14,"CCCCCC[S+]([O-])c1ccc(C(=O)c2ccc(N(CC3CC3)c3ccc(Cl)cc3)cc2)cc1C(=O)O (centres unmarked) [Example 1:12, 5-{4-[(4-Chlorophenyl)cyclopropylmethylamino]benzoyl}-2-(1-hexylsulfinyl)-benzoic acid]",29 nM
15,"O=C(c1ccc(Sc2ccc(Cl)cc2)c(C(=O)O)c1)c1ccc(N(CC2CC2)c2ccc(Cl)cc2)cn1 [2:9, 5-{5-[(4-Chlorophenyl)cyclopropylmethylamino]pyridine-2-carbonyl}-2-(4-chlorophenylsulfanyl)benzoic acid]",74 nM

# From patent US20110319431A1, “Bis Aromatic Compounds for Use as LTC4 Synthase Inhibitors” (BIOLIPOX AB, priority 2009, published 2011)
